Earlier results on 1 compound are cited in patent US20070092539A1 (priority 2003, published 2007).

One series concerns rates with arthritis. The following applies: experimental models on rates with arthritis, compared with other AINEs.

On to `Cc1cnc(NC(=O)C2=C(O)c3ccccc3S(=O)(=O)N2C)s1` [meloxicam, 4-hydroxy-2-methyl-N-(5-methyl-2-thiazolyl)-2H-1,2-benzotiazine-3-carboxamide-1,1-dioxide], for which the solubility in methanol result (methanol) was “slightly soluble in methanol”. Besides, the solubility in water result (water) is reported as “practically insoluble in water”. In the series with rates with arthritis, the “therapeutic margin (ulcerogenic vs anti-inflammatory doses)” value is “superior therapeutic margin over the other AINEs”.
